Test results reported in US20110294144A1, “SCREENING METHOD” (priority 2008, published 2011).

Experiments:
[1] = biological target: T1, PRKX (Homo sapiens, UniProt P51817); assay: pS214 tau / total tau ELISA in PRKX-transfected H4-tau cells; format: cell-based; set-up: using change-1F and hPRKX-1R as primers to give mutant PRKX full-length DNA; expressed in transfected cells; host or cells: H4-tau cells (human H4 neuroglial cells stably expressing human tau), transiently transfected with pPRKXkai (pTARGET vector); details: H-89 10-0.1 μM, 2 hr, pPRKXkai, read-out: IC50 of suppression of the amount of tau S214 phosphorylation (ELISA, phosphorylated tau in total tau)
T1 sequence (P51817 1-358): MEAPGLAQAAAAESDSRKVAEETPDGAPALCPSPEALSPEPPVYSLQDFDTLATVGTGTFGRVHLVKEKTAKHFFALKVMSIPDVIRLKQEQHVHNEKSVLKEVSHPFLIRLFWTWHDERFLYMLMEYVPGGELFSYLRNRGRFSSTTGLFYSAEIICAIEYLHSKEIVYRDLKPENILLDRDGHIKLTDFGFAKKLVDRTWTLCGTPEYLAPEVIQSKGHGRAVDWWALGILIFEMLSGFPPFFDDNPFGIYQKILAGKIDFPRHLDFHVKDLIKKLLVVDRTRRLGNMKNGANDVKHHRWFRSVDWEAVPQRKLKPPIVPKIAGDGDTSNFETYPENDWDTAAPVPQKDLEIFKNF
Protocol: pPRKXkai and pTARGET vectors were each transferred into H4-tau cells cultured overnight in a DMEM medium containing 10% FBS, using a Fugene6 transfection reagent. One day later, H-89 was added at a concentration of 10-0.1 μM. 2 hr later, the cells were dissolved in a cell lysis buffer, the amount of S214 phosphorylated tau was measured using a human pS214 tau ELISA kit, the amount of the total tau was measured using a human total tau ELISA kit, and the amount of phosphorylated tau in the total tau was examined. As a result, the amount of tau S214 phosphorylation was suppressed at an IC50 value of 0.7 μM.

[2] = biological target: T1, PRKX; assay: In-cell infrared fluorescence imaging (Odyssey) of S214 phosphorylated tau and total tau in PRKX-transfected H4-tau cells; format: cell-based; set-up: using change-1F and hPRKX-1R as primers to give mutant PRKX full-length DNA; expressed in transfected cells; host or cells: H4-tau cells (human H4 neuroglial cells stably expressing human tau), transiently transfected with pPRKXkai (pTARGET vector); details: H-89 10-0.1 μM, 2 hr; H4-tau cells in 96 well plate, pPRKXkai; read-out: IC50 of suppression of the amount of tau S214 phosphorylation (infrared fluorescence imaging)
Protocol: H4-tau cells were plated in a DMEM medium containing 10% FBS in a 96 well plate at a concentration of 1×10^4 cells/well and, the next day, pPRKXkai and pTARGET vectors were each transferred thereinto using a Fugene6 transfection reagent. One day later, H-89 was added to the medium at a concentration of 10−0.1 μM. 2 hr later, the cells were fixed with 4% para-formaldehyde (Wako Pure Chemical Industries, Ltd.), washed with phosphate buffer, and blocked with phosphate buffer containing 1.5% BSA (Sigma Aldrich) and 0.1% Triton X-100 (Wako Pure Chemical Industries, Ltd.). Thereafter, as a primary antibody, an anti-S214 phosphorylated tau antibody was used to label phosphorylated tau and an anti-tau monoclonal antibody HT-7 (Pierce Biotechnology) was used to label total tau. After washing, they were reacted with an anti-rabbit Alexa Fluor 680-labeled secondary antibody (Invitrogen) and an anti-mouse IRD800CW-labeled secondary antibody (Wako Pure Chemical Industries, Ltd.), as secondary antibodies. After washing, the amounts of S214 phosphorylated tau and total tau were detected using 2 fluorescence system infrared fluorescence Imager Odyssey (ALOKA CO., LTD.). As a result, the amount of tau S214 phosphorylation was suppressed at an IC50 value of 0.7 μM.

[3] = biological target: T1, PRKX; assay: Western blot of S214 phosphorylated tau in H4-tau cells transfected with PRKX expression plasmid; format: cell-based; set-up: using change-1F and hPRKX-1R as primers to give mutant PRKX full-length DNA; expressed in transfected cells; host or cells: H4-tau cells (human H4 neuroglial cells stably expressing human tau), transiently transfected with pPRKXkai (pTARGET vector); details: 10 μM H-89 added 2 hr before cell recovery
Protocol: pFB-Neo-CMV-tau plasmid obtained by inserting a DNA fragment containing a wild-type human tau gene bound at the downstream of a CMV promoter into a multicloning site of pFB-neo vector (Stratagene) was transferred into H4 neuroglial cells according to the instructions of ViraPort(R) Retroviral Gene Expression System (Stratagene), and a cell confirmed to show expression of tau was used as a H4-tau cell. […] After transcription to a PVDF membrane, Western blot was performed using, as a primary antibody, an anti-S214 phosphorylated tau antibody (BioSource) for the detection of S214 phosphorylated tau, an Ab-3 antibody (Lab Vision) for the detection of total tau, and […], and according to the instructions of ECL Advance Western Blotting Detection Kit (Amarsham Bioscience), and each protein was detected by LAS-1000 plus lumino image analyzer (Fujifilm). […] The tranfected cell was dissolved in a cell lysis buffer (BioSource), the amount of S214 phosphorylated tau was measured using a human pS214 tau ELISA kit (BioSource), the amount of total tau was measured using a human total tau ELISA kit (BioSource), each according to the instructions, and the amount of phosphorylated tau in the total tau was examined. […]

[4] = system: mouse primary nerve cells infected with PRKX overexpression lentivirus; assay: Immunostaining of S214 phosphorylated tau in mouse primary nerve cells infected with PRKX overexpression lentivirus; format: cell-based; details: DIV12 mouse primary nerve cells, PRKX lentivirus MOI=2
From the text: DIV12 mouse primary nerve cells plated in a 48 well plate at a concentration of 3.5×10^3 cells/well were infected with PRKX overexpression lentiviruses at MOI=2. Two days later, the cells were fixed with 4% para-formaldehyde, washed with phosphate buffer, and blocked with a phosphate buffer containing 1.5% BSA and 0.1% Triton X-100. Thereafter, as a primary antibody, an anti-S214 phosphorylated tau antibody was used to label phosphorylated tau, and an anti-MAP2 monoclonal antibody (Chemicon International) was used to label nerve cells. After washing, anti-S214 phosphorylated tau antibody was stained with anti-rabbit alexafluoro594-labeled secondary antibody, and anti-MAP2 antibody was stained with anti-mouse alexafluoro488-labeled secondary antibody (Invitrogen), and they were photographed using Discovery-1. As a result, the amount of tau S214 phosphorylation decreased due to H-89.

[5] = biological target: T1, PRKX; details: non-patent document 3; cited from earlier work
[6] = biological target: T1, PRKX; assay: Cell-free tau S214 phosphorylation by recombinant PRKX protein, Western blot; format: biochemical; set-up: purchased Invitrogen; details: 30° C., 60 min
Protocol: To a reaction mixture (40 mM Tris-HCl (pH 7.5), 20 mM MgCl2, 0.1 mg/ml BSA, 25 μl) containing recombinant PRKX protein (Invitrogen, 4 μg/ml) and recombinant tau protein (Wako Pure Chemical Industries, Ltd., 40 μg/ml) was added H-89 solution (40 mM Tris-HCl (pH 7.5), 0.1% DMSO, 20 mM MgCl2, 0.1 mg/ml BSA, 5 μl) to a concentration during reaction of 1 or 0.1 μM. As a control, 40 mM Tris-HCl (pH 7.5), 0.1% DMSO, 20 mM MgCl2, 0.1 mg/ml BSA solution (5 μl) were added. 25 μM ATP solution (40 mM Tris-HCl (pH 7.5), 20 mM MgCl2, 0.1 mg/ml BSA) was added by 20 μl to start the reaction and the mixture was left standing at 30° C. for 60 min. An SDS sample buffer was added to quench the reaction, the protein was separated using NuPAGE 4-12% Bis-Tris gel and transferred to a PVDF membrane. Western blot was performed using an anti-S214 phosphorylated tau antibody as a primary antibody and ECL Advance Western Blotting Detection Kit, and S214 phosphorylated tau was quantified by LAS-1000 plus lumino image analyzer. […] By the addition of H-89 at a final concentration of 1 and 0.1 μM, the tau S214 phosphorylation reaction decreased to 5% and 52%, respectively, of that without the addition.

[7] = system: mouse primary nerve cells infected with PRKX overexpression lentivirus; assay: Neurite elongation (MAP2 staining) in mouse primary nerve cells infected with PRKX overexpression lentivirus; format: cell-based; details: DIV14 mouse primary nerve cells, PRKX lentivirus MOI=2, forskolin 10 μM 2 days
Protocol: DIV14 mouse primary nerve cells were plated in a 48 well plate at a concentration of 3.5×10^3 cells/well and infected with PRKX or D172A overexpression lentivirus at MOI=2. Four days after the infection, forskolin was added at a concentration of 10 μM, and the cells were cultured for 2 days. The cells were fixed, nerve cell was labeled with anti-MAP2 monoclonal antibody as a primary antibody, anti-MAP2 antibody was stained with anti-mouse Alexa Fluor 488-labeled secondary antibody, and they were photographed by Discovery-1. The neurite elongation was measured by a metamorph software based on the images taken by Discovery-1. As a result, the decrease of the neurite elongation found with the PRKX overexpression lentivirus was suppressed by 76% by H-89.

[8] = system: H4-tau cells infected with PRKX overexpression lentivirus; assay: Thioflavin S positive cell count (tau aggregation) in H4-tau cells infected with PRKX overexpression lentivirus; format: cell-based, human; details: 3 μM H-89, added three days after infection; PRKX lentivirus MOI=2.5
Protocol: H4-tau cells were plated in a 24 well plate at a concentration of 1×10^5 cells/well and, the next day, infected with PRKX or lacZ overexpression lentivirus at MOI=1 or 2.5. Three days later, H-89 was added to a concentration of 3 μM. The next day, the cells fixed with 4% para-formaldehyde were washed with phosphate buffer, and blocked with phosphate buffer containing 1.5% BSA and 0.1% Triton X-100. Thereafter, the cells were stained by using S214 phosphorylated tau, and anti-S214 phosphorylated tau or total tau antibody as a primary antibody and anti-rabbit Alexa Fluor 594-labeled secondary antibody as a secondary antibody. Thereafter, the cells were left standing in 0.005% aqueous thioflavin S (Sigma Ltd.) solution for 5 min, and washed twice with 70% ethanol and once with water. Furthermore, the nucleus was stained with DAPI. The stained cells were photographed by Discovery-1, and the number of DAPI positive cells and the number of thioflavin S positive cells were counted by metamorph software (Molecular Device) based on the images taken by Discovery-1. In the PRKX infected well, the number of cells stained with thioflavin S having a β sheet structure increased 2-fold at MOI=1 and 5.2-fold at MOI=2.5 as compared to lacZ infected well. By containing with a tau specific antibody, almost all thioflavin S positive images were contained with tau and S214 phosphorylated tau. […]

[9] = system: H4 cells infected with PRKX overexpression lentivirus; assay: Cell death (DAPI positive cell count) in H4 cells infected with PRKX overexpression lentivirus; format: cell-based, human; details: PRKX lentivirus MOI=1
Protocol: H4 cells were plated in a 48 well plate at a concentration of 3.5×10^3 cells/well and, the next day, infected with PRKX or lacZ overexpression lentivirus at MOI=1. Two days later, H-89 was added at 3 or 10 μM. The next day, the cells were fixed, and the nucleus was stained with DAPI. DAPI positive cells were photographed by Discovery-1, and the number of DAPI positive cells was counted from the images by a Metamorph software. […] The cell death was suppressed by 29% or 46% by the addition of 3 μM or 10 μM H-89.

## O=S(=O)(NCCNC/C=C/c1ccc(Br)cc1)c1cccc2cnccc12 [H-89]
[1]
  IC50: 700 nM
[2]
  IC50: 700 nM
[3]
  enhanced S214 phosphorylation of tau (Western blot): enhanced phosphorylation was not found
[4]
  amount of tau S214 phosphorylation: decreased
[5]
  inhibition of PRKX: inhibit PRKX
[6]; H-89 final concentration 0.1 μM
  tau S214 phosphorylation reaction, % of that without the addition: 52%
[6]; H-89 final concentration 1 μM
  tau S214 phosphorylation reaction, % of that without the addition: 5%
[7]
  suppression of the decrease of the neurite elongation: 76%
[8]
  suppression of the increase of thioflavin S stained cells: 75%
[9]; 3 μM H-89
  suppression of cell death: 29%
[9]; 10 μM H-89
  suppression of cell death: 46%
